Results: patent US20200113902A1, “COMPOSITIONS AND METHODS FOR TREATING CANCERS WITH COVALENT INHIBITORS OF CYCLIN-DEPENDENT KINASE 7 (CDK7)” (Syros Pharmaceuticals, Inc., priority 2017, published 2020)

Key:
OV15696 xenograft = assay: Ovarian PDX OV15696, tumor volume; assay type: in vivo, mouse; settings: 40 or 30 mg/kg i.v. BIW
Method: (§1) Patient-derived xenograft (PDX) models from ovarian carcinoma patients (OV5387, OV14702, OV14972, OV15398, OV15576, OV15696, OV15612, OV15631) were established in NOD-SCID mice at Crown Bioscience (San Diego, USA). Cryo vials containing tumor cells were thawed and prepared for injection into mice. Cells were washed in PBS, counted, and resuspended in cold PBS at a concentration of 50,000-100,000 viable cells/100 ul. Cell suspensions were mixed with an equal volume of Cultrex ECM and kept on ice during transport to the vivarium. Cells were prepared for injections by withdrawing ECM-Cell mixture into a chilled slip-tip syringe fitted with a 26G 7/8 (0.5 mm×22 mm) needle. The filled syringes were kept on ice to avoid the solidification of ECM. Each mouse was inoculated subcutaneously in the right flank with 200 uL of the cell suspension. Tumor sizes were measured in two dimensions using a caliper, and the volumes were expressed in mm3 using the formula: V=0.5 a×b^2 where a and b are the longest and shortest diameters of the tumor, respectively. Compound 1 treatment was started when the average tumor size reached 150-200 mm^3.
(§2) Compound 1 was formulated in w/v 20% Captisol (pH 4-6) and administered by i.v. twice weekly (BIW) at a final dose of 40 mg/kg or 30 mg/kg in a 10 ml/kg volume. Tumor volumes were measured twice weekly over the course of the study. […]

[1] = system: homologous recombination deficiency / carboplatin sensitivity genes in OvCar3 cells; assay: Nanostring PanCancer Pathways mRNA, OvCar3; assay type: cell-based; settings: 50 nM, 16 hours
Method: (§3) Ovarian Cell lines OvCar3, TOV21G, A2780 and COV318 were plated at 500,000 cells/well in a 6-well plate the day before treatment. The next day the cells were treated with vehicle or 50 nM Compound 1 for 0, 6, or 16 hours after which cells were harvested and total RNA collected using RNeasy mini kit (Qiagen). Changes in mRNA between samples were analyzed with Nanostring™ PanCancer Pathways Panels specifically analyzing genes related to homologous recombination deficiency and carboplatin sensitivity (ie. BRCA1, BRCA2, Rad51, ATM, ATR, MSH2, MSH6). Nanostring signal intensities were first normalized to housekeeping genes across all cell lines, and then normalized to the 0 hour timepoint within a cell line.

[2] = system: homologous recombination deficiency / carboplatin sensitivity genes in TOV21G cells; assay: Nanostring PanCancer Pathways mRNA, TOV21G; assay type: cell-based; settings: 50 nM, 16 hours
Method: as §3

[3] = system: MCL1 protein in HCC70 cells; assay: Western blot of BCL2 family proteins, HCC70; assay type: cell-based, human; settings: 50 nM or 100 nM, 24 hours
Method: Cytotoxic cancer cell lines HCC70 and TOV21G, and cytostatic cancer cell lines T47D and COV318 were seeded in wells of a six-well dish at a density of 1×10^6 cells/well and allowed to adhere overnight. Cells were then treated with 50 nM of Compound 1 for 16 or 24 hours, or with DMSO (0 hours) representing a negative control. Cells were harvested and placed on ice, and resuspended in RIPA lysis buffer supplemented with protease and phosphatase inhibitors. Clarified lysates prepared with 4×LSD running buffer and boiled at 95° C. for 5 minutes. Equivalent amounts of sample (10 μg total protein) were run on a 4-12% Bis-Tris gel and transferred to a PDVF membrane for Western blotting using standard Western blotting protocols. Membranes were blocked with Licor TBS blocking buffer then probed with antibodies for BCL-XL, BCL-2, MCL1, BID, and GAPDH visualized using and Odyssey imager (FIGS. 23A and 23D).
In a similar experiment, TNBC breast cancer cell lines HCC70, MDAMB468, MDAMB453 and CAL-120 were grown as described above and treated with DMSO, 50 nM Compound 1 or 100 nM Compound 1 for 24 hours. Protein samples were prepared as described above for Western blotting using antibodies specific for the indicated proteins in FIG. 29A. […]

[4] = system: Rad51, CHEK1 and CHEK2 mRNA in MDA-MB-468, MDA-MB-231, Ca1120 and MDA-MB-453; assay: Quantitative PCR of DNA damage repair genes, breast cancer cell lines; assay type: cell-based; settings: 50 nM, 6 hrs
Method: Breast cancer cell lines MDA-MB-468, MDA-MB-231, Ca1120 and MDA-MB-453 were plated at 200,000 cells/well in a 6-well plate the day before treatment. The next day the cells were treated with vehicle, 50 nM Compound 1 or 50 nM Paclitaxel for 6 hrs, after which cells were harvested and total RNA collected using RNeasy mini kit (Qiagen). Total RNA (500 ng) was reverse transcribed using Quantitect Reverse Transcription kit (Qiagen). Quantitative PCR for each of Rad51, CHEK1 and CHEK2 was performed on QuantStudio 6 Flex (Applied Biosystems) using Power SYBR green PCR master mix (Thermo Fisher Scientific) and primers specific for each of those genes. The change in gene expression, relative to housekeeping gene RPL27, was quantified using DDCt method.

OV14702 xenograft = assay: Ovarian PDX OV14702, tumor volume; assay type: in vivo, mouse; settings: OV14702 (RB1 null); 40 or 30 mg/kg i.v. BIW
Method: as §1, §2

CN(C)C/C=C/C(=O)Nc1ccc(C(=O)N[C@@]2(C)CCC[C@@H](Nc3ncc(Cl)c(-c4c[nH]c5ccccc45)n3)C2)nc1 [Compound 1, N-((1S,3R)-3-(5-chloro-4-(1H-indol-3-yl)pyrimidin-2-ylamino)-1-methylcyclohexyl)-5-((E)-4-(dimethylamino)but-2-enamido)picolinamide]
Response to treatment (tumor growth) (OV15696 xenograft): non-responders
mRNA of genes related to homologous recombination deficiency and carboplatin sensitivity, all genes except Rad51 (BRCA1, BRCA2, ATM, ATR, MSH2, MSH6) [1]: downregulated
mRNA of genes related to homologous recombination deficiency and carboplatin sensitivity, all genes except Rad51 (BRCA1, BRCA2, ATM, ATR, MSH2, MSH6) [2]: downregulated
MCL1 protein level (Western blot) [3]: downregulated
mRNA expression from genes involved in DNA repair (Rad51, CHEK1, CHEK2) [4]: Downregulation
Response to treatment (tumor growth) (OV14702 xenograft): responded
